Source: publication PMC10889688 (2024)

Experiments:
[1] = test system: rArU (AU homopolynucleotide) (RNA, polymer) A/U; test: fluorescence titration, Scatchard equation; settings: Na+ (sodium cacodylate, I = 0.05 mol dm^-3); sodium cacodylate buffer pH 7.0, 25 °C; RNA concentration as phosphates; per base
[2] = test system: rArU (AU homopolynucleotide) (RNA, polymer) A/U; test: UV thermal melting at 260 nm; settings: Na+ (sodium cacodylate, I = 0.05 mol dm^-3); sodium cacodylate buffer pH 7.0; r = [compound]/[polynucleotide] = 0.1; per base

| logKa [1] | ΔTm [2] [°C] | Compound |
| --- | --- | --- |
| 7.9 | 4.9 ± 0.5 | N#Cc1cc2cc3ccc(N4CCNCC4)cc3nc2n2c1nc1ccccc12 |
| 8.6 | 1.1 ± 0.5 | CN(C)CCCNc1ccc2cc3cc(C#N)c4nc5ccccc5n4c3nc2c1 |
